Laboratory results from patent publication US20100298557A1, “PYRAZOLOPYRIMIDINE COMPOUND” (Taisho Pharmaceutical Co., Ltd, priority 2006, published 2010).

How the values were obtained:
Syk = molecular target: T1, Syk (Homo sapiens, UniProt P43405); test: Syk inhibition test; type: biochemical; settings: poly(L-glu-L-tyr) substrate, ATP 5 μM, [γ-33P]ATP, 30 minutes room temperature; read-out: Syk inhibitory activity IC50
T1 construct: purchased Wako Pure Chemical Industries
Method: 10 ng/10 μl/well of a Syk (Wako Pure Chemical Industries) solution, 15 μl of a poly(L-glu-L-tyr) substrate peptide solution (Sigma, final concentration 5 μM), 20 μl of an ATP mixture (ATP: Oriental Yeast, final concentration 5 μM, [γ-33P]ATP: GE Healthcare Biosciences, 0.1 μCi/well) and 5 μl of a test substance solution were added to a 96-well Corning reaction plate, followed by incubation at room temperature for 30 minutes. An assay buffer containing 50 mM Tris pH 7.5, 10 mM MgCl2, 0.1 mM Na3VO4, 1 mM DTT, 0.01% CHAPS and 100 μg/ml BSA was used. The test substance solution was made by dissolving the test substance in DMSO at each concentration. The final concentration of DMSO was 1%. The reaction was terminated by adding 100 μl of a 120 mM phosphoric acid solution as a reaction terminator. Then, the total reaction solution was transferred to MultiScreen (Millipore) and washed with 200 μl of 100 mM phosphoric acid four times.
After drying, 20 μl of MicroScint-O (PerkinElmer) was added and the radioactivity was measured by TopCount (PerkinElmer). The ratio of the radioactivity when the test substance was added to the radioactivity when the test substance was not added was determined. The IC50 value was calculated from the inhibition rate at each concentration and used as an index of inhibitory activity.

PCA reaction = test: Rat passive cutaneous anaphylaxis (PCA) test; type: in vivo; settings: male Wistar rats, oral administration four hours prior to antigen challenge, blue spot area
Method: The back of seven-week-old male Wistar rats was clipped under light anesthesia with ether, and the rats were sensitized by intradermal administration of 100 μl of 25 ng/ml anti-dinitrophenyl-IgE (DNP-IgE) (Sigma) to the back. 24 hours after the sensitization, 1 ml of a 0.5% Evans blue solution containing 1 mg of DNP-BSA was intravenously administered. Further, 30 minutes after the administration, the rats were sacrificed and the back skin was collected. The test compound, or only a vehicle as a control, was orally administered four hours prior to the antigen challenge. The length and breadth of the skin blue spot were calipered, and the area of the blue spot was calculated as length×breadth. The PCA inhibition rate by the test substance was calculated by the following formula. In the formula, • C represents: a blue spot area by PCA reaction when only the vehicle was administered, and • X represents: a blue spot area by PCA reaction when the test compound was administered. Inhibition rate (%)=(C−X)×100/C

Abl = molecular target: T2, Abl (Homo sapiens, UniProt P00519); test: Abl inhibition test; type: biochemical; settings: Abltide substrate, ATP 6 μM, [γ-33P]ATP, 40 minutes room temperature; read-out: Abl inhibitory activity IC50
T2 construct: purchased Wako Pure Chemical Industries
T2 sequence (P00519 whole entry, species assumed): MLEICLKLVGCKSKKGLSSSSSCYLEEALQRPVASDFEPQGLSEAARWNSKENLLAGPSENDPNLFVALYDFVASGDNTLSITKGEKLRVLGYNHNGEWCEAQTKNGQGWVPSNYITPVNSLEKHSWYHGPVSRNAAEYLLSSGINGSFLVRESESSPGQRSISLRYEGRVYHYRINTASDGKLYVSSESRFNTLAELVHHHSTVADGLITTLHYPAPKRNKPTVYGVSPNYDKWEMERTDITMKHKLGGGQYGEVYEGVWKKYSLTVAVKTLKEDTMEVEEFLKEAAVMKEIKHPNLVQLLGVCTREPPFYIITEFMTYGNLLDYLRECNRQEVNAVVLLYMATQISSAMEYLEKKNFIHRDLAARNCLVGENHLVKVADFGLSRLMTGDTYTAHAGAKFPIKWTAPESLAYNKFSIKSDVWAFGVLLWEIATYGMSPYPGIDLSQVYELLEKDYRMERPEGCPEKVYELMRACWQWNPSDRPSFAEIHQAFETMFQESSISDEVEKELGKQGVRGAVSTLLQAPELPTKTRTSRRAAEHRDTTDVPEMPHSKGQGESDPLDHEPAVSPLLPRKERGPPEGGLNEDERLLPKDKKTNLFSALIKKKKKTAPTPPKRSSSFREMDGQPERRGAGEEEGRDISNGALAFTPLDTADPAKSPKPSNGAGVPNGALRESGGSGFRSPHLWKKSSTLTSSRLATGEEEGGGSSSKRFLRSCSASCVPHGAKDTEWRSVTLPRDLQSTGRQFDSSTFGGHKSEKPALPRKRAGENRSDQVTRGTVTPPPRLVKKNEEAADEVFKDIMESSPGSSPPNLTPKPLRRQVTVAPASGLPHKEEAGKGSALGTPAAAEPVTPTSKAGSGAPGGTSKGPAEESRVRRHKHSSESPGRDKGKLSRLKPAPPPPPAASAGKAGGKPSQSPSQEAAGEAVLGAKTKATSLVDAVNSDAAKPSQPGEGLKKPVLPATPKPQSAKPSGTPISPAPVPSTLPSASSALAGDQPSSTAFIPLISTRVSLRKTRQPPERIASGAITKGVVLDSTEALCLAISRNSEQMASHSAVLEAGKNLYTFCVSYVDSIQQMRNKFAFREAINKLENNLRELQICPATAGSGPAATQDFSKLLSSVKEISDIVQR
Method: 5 ng/5 μl/well of an Abl (Wako Pure Chemical Industries) solution, 30 μl of an Abltide substrate peptide solution (Wako Pure Chemical Industries; final concentration 5 μM) and 5 μl of a test substance solution were added to a 96-well plate (Corning), followed by incubation at room temperature for 15 minutes. Then, 10 μl of an ATP mixture (ATP: Oriental Yeast, final concentration 6 μM, [γ-33P]ATP: GE Healthcare Biosciences, 0.06 μCi/well, MgAcetate: Cosmo Bio, final concentration 10 mM) was added, followed by incubation at room temperature for 40 minutes. The Abl solution was prepared using a kinase buffer (20 mM MOPS pH 7.0, 1 mM EDTA, 0.1% β-mercaptoethanol, 0.01% Brij-35, 5% glycerol, 1 mg/ml BSA). The substrate peptide solution and the ATP mixture were prepared using 8 mM MOPS pH 7.0 and 0.2 mM
EDTA. The test substance solution was made by dissolving the test substance in DMSO at each concentration. The final concentration of DMSO was 1%. The reaction was terminated by adding 100 μl of a 100 mM phosphoric acid solution as a reaction terminator. Then, the total reaction solution was transferred to a 96-well MultiScreen plate (Millipore) and washed with 200 μl of 100 mM phosphoric acid three times. After drying, 20 μl of MicroScint-O (PerkinElmer) was added and the radioactivity was measured by TopCount (PerkinElmer). After subtracting the radioactivity in the well to which the Abltide substrate peptide was not added from each radioactivity, the ratio of the radioactivity when the test substance was added to the radioactivity when the test substance was not added was determined. The IC50 value was calculated from the inhibition rate at each concentration and used as an index of inhibitory activity.

[1] = tested on: Human mast cell line LAD cells; test: Degranulation test using human mast cell line LAD cells; type: cell-based; settings: IgE-sensitized LAD cells, anti-human IgE stimulation, β-hexosaminidase release, read-out: degranulation inhibitory activity IC50
Method: Human mast cell line LAD cells were sensitized with human IgE (Cosmo Bio; final concentration 1 μg/ml) overnight. The cells were harvested, and then washed with PBS (Invitrogen) and washed again with Tyrode's buffer solution (Sigma) containing 0.1% BSA (Sigma). The cells were seeded into a 96-well plate at 10^5 cells/well and then the compound (0.1% final concentration DMSO solution) was added, followed by incubation at 37° C. for 15 minutes. Rabbit anti-human IgE (Dako Japan; final concentration 10 μg/ml) or control Ig (Dako Japan; final concentration 10 μg/ml) was added, followed by incubation at 37° C. for 30 minutes. The supernatant was recovered and p-nitrophenyl-2-acetamido-2-deoxy-β-D-glucopyranoside (Sigma; final concentration 4 mM), a substrate of β-hexosaminidase which is an index of degranulation, was added, followed by incubation at 37° C. for 45 minutes. Glycine (Wako; final concentration 0.2 M, pH 10.4) was added and the reaction was terminated. Then, the absorbance at 405 nm was measured.
The inhibition rate (%) was calculated as (anti-IgE antibody degranulation rate—compound-added group degranulation rate)/(anti-IgE antibody degranulation rate—control antibody degranulation rate)×100. The IC50 value was calculated from the inhibition rate at each concentration and used as an index of inhibitory activity.

[2] = tested on: collagen-induced arthritis; test: Mouse collagen-induced arthritis (CIA) test; type: in vivo; settings: male DBA/1 mice, oral administration for 42 consecutive days, arthritis score
Method: Seven-week-old male DBA/1 mice were sensitized by intradermal administration of bovine type II collagen/complete Freund's adjuvant emulsion (150 μg/0.1 ml/mouse) to the tail head. 21 days after the primary sensitization, the mice were similarly boosted by intradermal administration of bovine type II collagen/complete Freund's adjuvant emulsion (100 μg/0.1 ml/mouse) to the tail head. After the booster, the degree of arthritis was scored by observation for each extremity twice a week on the following scale. • 0: No arthritis • 1: Edema in one finger joint • 2: Edema in two or more finger joints or instep • 3: Edema in tarsus or ankle • 4: Severe edema or joint deformation Oral administration of the test compound, or only a vehicle as a control, was started 30 minutes prior to the booster, and administration was carried out for 42 consecutive days thereafter. For each day passed, the total score for the extremities was provided as an arthritis score for one individual (0 to 16), and the arthritis onset inhibitory effect was evaluated as an average value for eight cases using the vehicle-administered group as a control group.

Structure (SMILES)	IC50 (Syk)	inhibition of PCA reaction (PCA reaction)	IC50 (Abl)	IC50 [1]	inhibition of the onset of arthritis in the CIA model [2]
CS(=O)(=O)c1n[nH]c2nc(Nc3ccc(N4CCOCC4)cc3)nc(NC3CC3)c12 [Compound 6, N^4-Cyclopropyl-3-(methylsulfonyl)-N^6-(4-morpholin-4-ylphenyl)-1H-pyrazolo[3,4-d]pyrimidine-4,6-diamine]	0.16 µM	excellently inhibited PCA reaction	≤ 0.05 µM		
CS(=O)(=O)c1n[nH]c2nc(Nc3ccc(N4CCOCC4)cc3)nc(NC3CC3)c12 [Compound 7]				0.024 µM	excellently inhibited the onset of arthritis
CS(=O)(=O)c1n[nH]c2nc(Nc3ccc(N4CCCC(C(=O)N5CCOCC5)C4)cc3)nc(NC3CC3)c12 (centres unmarked) [Compound 143]	≤ 0.2 µM		≤ 0.01 µM	≤ 0.1 µM	
